Entries after “also recorded” stand apart in the source; their conditions may differ.
Key:
[1] = molecular target: T1, α1-subunit of the human glycine receptor (Homo sapiens, UniProt P23415); assay: Whole-cell current recording with cell-flow method, HEK 293 cells expressing glycine receptor; format: cell-based
T1 construct: expressed in transfected cells; host or cells: HEK 293 cells, transiently transfected (Polyfect), co-transfected with GFP plasmid as marker; cDNA from Prof; H. Betz
T1 sequence (P23415 29-457): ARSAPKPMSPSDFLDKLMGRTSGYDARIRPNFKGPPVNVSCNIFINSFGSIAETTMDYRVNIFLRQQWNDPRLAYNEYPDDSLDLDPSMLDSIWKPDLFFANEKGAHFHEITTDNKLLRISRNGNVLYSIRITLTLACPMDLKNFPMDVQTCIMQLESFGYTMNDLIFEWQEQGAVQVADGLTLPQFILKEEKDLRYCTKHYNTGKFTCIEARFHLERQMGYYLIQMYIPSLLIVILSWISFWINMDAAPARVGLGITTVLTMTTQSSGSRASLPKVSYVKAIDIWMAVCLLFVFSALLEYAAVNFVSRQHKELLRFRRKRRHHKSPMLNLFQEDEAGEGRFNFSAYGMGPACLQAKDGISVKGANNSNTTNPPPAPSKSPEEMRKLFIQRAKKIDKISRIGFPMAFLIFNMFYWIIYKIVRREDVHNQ
Text: (§1) In whole-cell current recording experiments with DECM-caged glutamate, HEK 293 cells stably transfected with cDNA encoding the GluR6 were used. In whole-cell current recording experiments with DECM-caged glycine, HEK 293 cells were transiently transfected with the cDNA of the α1-subunit of the human glycine receptor by using the Polyfect™ transfection reagent (Qiagen GmbH, D-40724, Hilden, Germany). The cDNA of the α1-subunit was kindly provided by Professor H. Betz (Max-Plank-Institute for brain Research, Frankfurt, Germany). The cells were co-transfected with cDNA encoding the green fluorescent protein (pGreen Lantern plasmid, Life Technologies, Gaitherberg, Md.) to detect transfected cells (Chalfie et al., “Green Fluorescent Protein as a Marker for Gene Expression,” Science 263:802-805 (1994), which is hereby incorporated by reference in its entirety).
The cells were used for electrophysiological experiments between 24 and 72 h after each passage. Whole-cell currents evoked by glutamate or glycine (100 μM) were recorded using the whole-cell configuration (Hamill et al., “Improved Patch-Clamp Techniques for High-Resolution Current Recording From Cells and Cell-Free Membrane Patches,” Pfluegers Arch 391:85-100 (1981), which is hereby incorporated by reference in its entirety) at room temperature, −60 mV, and pH 7.4. […]

GluR6 glutamate receptor = assay: Whole-cell current recording with cell-flow method, HEK 293 cells expressing GluR6; format: cell-based
Text: as §1
The cells were used for electrophysiological experiments between 24 and 72 h after each passage. Whole-cell currents evoked by glutamate or glycine (100 μM) were recorded using the whole-cell configuration (Hamill et al., “Improved Patch-Clamp Techniques for High-Resolution Current Recording From Cells and Cell-Free Membrane Patches,” Pfluegers Arch 391:85-100 (1981), which is hereby incorporated by reference in its entirety) at room temperature, −60 mV, and pH 7.4. The experiments using DECM-caged glutamate were carried out in the absence or presence of 2 mM DECM-caged glutamate (FIG. 5A) or 1 mM 7-N,N-diethylamino-4-hydroxymethylcoumarin (2) (FIG. 5B). Alternatively, the experiments using DECM-caged glycine were carried out in the absence or presence of 1 mM DECM-caged-glycine (FIG. 10). The solution in the recording pipet contained 120 mM CsCl, 10 mM EGTA, and 10 mM HEPES, adjusted to pH 7.4. The HEK cell bath solution contained 150 mM NaCl, 1 mM CaCl2, 10 mM HEPES, pH 7.4. The resistance of the recording electrode filled with buffer solution was typically 3-5 MΩ and the series resistance was 5-6 MΩ. The cells were held at a constant transmembrane voltage of −60 mV and room temperature (22° C.). […]

Compound | whole-cell current evoked by 100 μM glycine, presence vs absence of compound ([1]; 2 mM DECM-caged glycine (FIG. 10 legend), −60 mV, pH 7.4, 22° C.) | biological activity at glycine receptors (inhibition or activation) ([1]; HEK293 cells expressing glycine receptors) | whole-cell current evoked by 100 μM glutamate, presence vs absence of compound (GluR6 glutamate receptor; 2 mM DECM-caged glutamate, −60 mV, pH 7.4, 22° C.) | biological activity at glutamate receptors (inhibition or activation) (GluR6 glutamate receptor; HEK-293 cells expressing glutamate receptors)
CCN(CC)c1ccc2c(COC(=O)CN)cc(=O)oc2c1 [DECM-caged glycine, (7-N,N-Diethylaminocoumarin-4-yl)-methyl-glycine-trifluoroacetate] | does not inhibit | biologically inert; also recorded: neither DECM-caged glycine nor its byproducts inhibited or activated the glycine receptors |  | 
CCN(CC)c1ccc2c(COC(=O)CCC(N)C(=O)O)cc(=O)oc2c1 (stereo not shown) [DECM-caged glutamate, (7-N,N-Diethylaminocoumarin-4-yl)-methyl-glutamate-trifluoroacetate] |  |  | do not inhibit | biologically inert
